Assay results published in paper PMC6434189, “Peperomin E and its orally bioavailable analog induce oxidative stress-mediated apoptosis of acute myeloid leukemia progenitor cells by targeting thioredoxin reductase” (Redox Biology, 2019).
“Also recorded” adds a separate entry of the source.

Assays:
TrxR1 = settings: read-out: TrxR1 inhibition IC50; cited from earlier work
primary CD34+ AML cells = experiment: CCK-8 cell viability assay on primary CD34+ AML cells; assay type: cell-based, human; settings: 48 h, CCK-8
Method: (§1) The mononuclear cells were further enriched for CD34 positive cells using the MACS CD34 MicroBead kit following the manufacturer's protocol. Enriched CD34 cell-purity was measured by flow cytometry-based quantification of cells stained using an anti-CD34-FITC antigen. Isolated CD34^+ cells were pre-incubated in the IMDM-based serum-free media for 1 h before the addition of drugs. PepE was dissolved in DMSO to make a 100 mM stock solution and stored in aliquots at – 20 °C. The 100 mM stock solution was diluted with DMSO to 10 mM and then diluted with PBS to 1 mM before treating the cells at the indicated concentrations. DMAPE and Ara-C were diluted in PBS to 1 mM concentration before use.
(§2) Unless otherwise mentioned, 2 × 10^4 cells were seeded at 96-well plates (Corning, New York, USA) in the IMDM-based serum-free media for 1 h. Then, the cells were incubated with different concentrations of PepE and DMAPE at 37 °C in a 5% CO2 incubator for 48 h. At the end of the treatment, 10 μL CCK-8 solution was added to each well and incubated for an additional 2 h at 37 °C, and the absorbance at 450 nm was measured with a microplate reader (Thermo Scientific, Multiskan GO, Finland). Inhibition ratio (%) was calculated as [(absorbance of control − absorbance of the test sample)/absorbance of control] x 100%.

KG-1a CD34+ cells = experiment: KG-1a-Luc CD34+ xenograft in NOD/SCID mice, bioluminescence; assay type: in vivo; settings: 50 mg/kg i.g. daily, 5 weeks
Method: Six-week-old female NOD-SCID mice (obtained from the model animal research center of Nanjing University, Nanjing, China) were acclimated for 1 week and housed in groups of five. All animal studies were conducted under the guidelines approved by the Animal Care and Use Committee of the Nanjing University of Chinese Medicine (Nanjing, China). The mice were sublethally irradiated with 2.7 Gy before transplantation.
KG-1a cells tagged with a luciferase reporter gene (KG-1a-Luc) were obtained from Cobioer biotechnology Inc. (Nanjing, Jiangsu, China) and cultured in 90% IMDM supplemented with 10% FBS, 0.05 mM 2-Mercaptoethanol, and 1 μg/mL Puromycin, and grown at 37 °C in a 5% CO2 humidified incubator. CD34 positive cells were enriched (following the 2.3 method) and injected via the tail vein in a final volume of 0.2 mL PBS with 0.5% FBS. For analyzing the luciferase signal, 5 × 10^6 cells KG-1a-Luc cells were used for each recipient animal. Seven days after transplantation, mice with KG-1a-Luc implants were subjected to bioluminescent analysis based on the luciferase signal. Briefly, mice received D-luciferin phosphate solution (100 mg/kg) intravenously 10 min prior to imaging. They were then anesthetized with isoflurane inhalation and imaged using a Xenogen IVIS scanner (PerkinElmer, Waltham, MA, USA). The next day, mice showing successful implantations were randomly divided into the control, DMAPE low dose, DMAPE high dose, and Ara-C treatment groups (n = 5 in each group), which received daily i. g. saline buffer, DMAPE phosphate salt 25 mg/kg, DMAPE phosphate salt 50 mg/kg and Ara-C (50 mg/kg), respectively. The growth of KG-1a-Luc cells was monitored every week by their luciferase signal. Five weeks after the implantation, all mice were sacrificed and their livers, kidneys, and bone marrow were excised for ex vivo bioluminescent imaging. The bioluminescent signal intensity was all quantified using the Living Image software (version 4.2, Carliper Life Science, Inc., Hopkinton, MA, USA) and is presented as photons/second/cm^2/sr (sr denotes steradian).

[1] = tested on: CD34+ NBM cells and hBMSCs; experiment: CCK-8 cell viability assay on normal CD34+ NBM cells and hBMSCs; assay type: cell-based, human; settings: 48 h, CCK-8
Method: as §1, §2

Sec residue in TrxR1 = target: T1, Sec residue in TrxR1 (Homo sapiens, UniProt Q16881); experiment: BIAM labeling assay; assay type: biochemical; settings: pH 6.5; PepE 1, 5, 10 μM; DNCB 5 μM
T1 construct: purchased Abcam ab204206
T1 sequence (Q16881 1-499 isoform Q16881-5): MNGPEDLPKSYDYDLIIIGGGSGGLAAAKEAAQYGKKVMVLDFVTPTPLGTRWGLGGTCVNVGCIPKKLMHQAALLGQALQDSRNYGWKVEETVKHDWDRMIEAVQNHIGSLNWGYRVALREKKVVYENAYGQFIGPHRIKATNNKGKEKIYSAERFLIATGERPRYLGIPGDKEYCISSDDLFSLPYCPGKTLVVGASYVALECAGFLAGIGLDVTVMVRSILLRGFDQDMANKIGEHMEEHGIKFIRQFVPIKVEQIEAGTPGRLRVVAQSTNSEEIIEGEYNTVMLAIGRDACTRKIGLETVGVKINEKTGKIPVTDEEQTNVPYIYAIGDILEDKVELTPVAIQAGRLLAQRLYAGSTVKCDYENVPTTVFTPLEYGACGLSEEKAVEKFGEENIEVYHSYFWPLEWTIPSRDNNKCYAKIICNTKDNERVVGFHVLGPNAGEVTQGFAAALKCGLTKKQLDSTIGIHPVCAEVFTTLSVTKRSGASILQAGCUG
Method: To further assess whether the Sec residue in TrxR1 was the modified site of PepE. The BIAM labeling assay was performed according to previous report. Briefly, 100 μM BIAM stock solution in 100 mM Tris-HCl, 1 mM EDTA buffer (pH = 6.5) was freshly prepared before each test. The TrxR1 protein (1 μM) was incubated with different concentrations (1, 5, 10 μM) of PepE or 5 μM of DNCB (positive control) and DMSO (negative control) in 50 mM Tris-HCl, 1 mM EDTA buffer (pH = 7.5) and 400 μM NADPH at 37 °C. After incubation, 4 μL of the reaction mixture was withdrawn and added mixed with 20 μM of BIAM solution in 100 mM Tris-HCl, 1 mM EDTA assay buffer (pH = 6.5) for 30 min at 37 °C to allow selective alkylation of free Sec residues. The reaction was stopped by adding the IAA solution (final concentration 50 mM). The samples were then denatured in SDS buffer, boiled and subjected to SDS-PAGE and western-blotting on a 7.5% gel, and the separated proteins were transferred to nitrocellulose membrane. The enzymes labeled with BIAM were detected with HRP-conjugated streptavidin and enhanced chemiluminescence detection. The bands were analyzed using Gel-pro 32 software.

NADPH-reduced TrxR1 = target: T2, NADPH-reduced TrxR1 (Homo sapiens, UniProt Q16881); experiment: Bio-layer interferometry (BLI) binding assay, TrxR1; settings: NADPH-reduced TrxR1 0.9 μM, 25 °C
T2 construct: purchased Abcam ab204206
T2 sequence (Q16881 1-499 isoform Q16881-5): T1 sequence (Q16881 1-499 isoform Q16881-5)
Method: The binding kinetics of PepE or PepA to purified recombinant proteins were determined using BLI on an Octet RED 96 system (ForteBio, Shanghai, China) following the manufacturer's protocol. All interaction analyses were performed at 25 °C in PBS with 0.2% DMSO. Purified recombinant proteins (0.9 μM, the TrxR1 full length and TrxR1 protein fragment were pre-reduced by 400 μM of NADPH before test) were pre-labeled with biotin using […] (Abcam) following the manufacturer's instruction. Loading of the Dip and Read Super Streptavidin (SSA) Biosensors (ForteBio) were conducted by exposing biotinylated proteins to biosensor tips for 2 h. The 96-well microplates used in the Octet were filled with 200 μL sample or buffer per well and agitated at 1000 rpm. The loaded biosensors were washed in buffer for 600 s and transferred to wells containing PepE at concentrations of 0.625, 1.25, 2.5, 5, and 10 μM or PepA at concentrations of 1.25, 2.5, 5, 10 and 20 μM, respectively, in the buffer. […] Reference measurements were conducted using the buffer instead of PepE (or PepA). A parallel set of SA unloaded biosensors was prepared to act as a control. The sample-sensorgrams were corrected by subtracting the double reference curve. Kinetic parameters (Kon and Kdis) and affinity (KD) were determined from a global fit to a 1:1 binding model of the data between proteins and PepE using Octet software (ForteBio).

C=C1C(=O)O[C@H]2[C@H]1CC/C(C)=C/CC[C@@]1(C)O[C@@H]21 [parthenolide, Parthenolide]
IC50 (TrxR1): ~3 µM

Nc1ccn([C@@H]2O[C@H](CO)[C@@H](O)[C@@H]2O)c(=O)n1 [Ara-C, Cytarabine, reference compound]
toxicity against AML progenitor cells (primary CD34+ AML cells): no apparent toxicity
in vivo efficacy against KG-1a CD34+ cells (KG-1a CD34+ cells): not obvious; also recorded: not significant
toxicity on NBM and hBMSC cells in side-by-side comparison [1]: more toxic than PepE and DMAPE

CC(C)=CC[C@@H](O)C1=CC(=O)c2c(O)ccc(O)c2C1=O [shikonin]
IC50 (TrxR1): ~1.6 µM

O=[N+]([O-])c1ccc(Cl)c([N+](=O)[O-])c1 [DNCB, 1-chloro-2,4-dinitrobenzene, reference compound]
BIAM alkylation of Sec residue of TrxR1 (Sec residue in TrxR1): significantly block

COc1cc(C(c2cc(OC)c3c(c2)OCO3)[C@@H]2COC(=O)[C@H]2C)cc2c1OCO2 [PepA, Peperomin A, reference compound]
Kd (NADPH-reduced TrxR1): 111 µM
